The experiment concerns the target recombinant human HPK1 (Homo sapiens (Human), UniProt Q92918). Kind of experiment: HPK1 kinase assay (ADP-Glo). Format: biochemical. The conditions noted are these: 25 μM ATP, MBP substrate. The method, boiled down:
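Activity was read as ADP formed, detected by ADP-Glo luminescence after the reaction of 5 ng recombinant human HPK1 with MBP and ATP (stocks 0.5 μg/μl and 25 μM) for 40 min at 30 °C. Buffer was Tris pH 7.5 with MgCl2, BSA and DTT, with compound in 0.5% DMSO. IC50 came from inhibition curves.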
Sequence of recombinant human HPK1 (Q92918 whole entry): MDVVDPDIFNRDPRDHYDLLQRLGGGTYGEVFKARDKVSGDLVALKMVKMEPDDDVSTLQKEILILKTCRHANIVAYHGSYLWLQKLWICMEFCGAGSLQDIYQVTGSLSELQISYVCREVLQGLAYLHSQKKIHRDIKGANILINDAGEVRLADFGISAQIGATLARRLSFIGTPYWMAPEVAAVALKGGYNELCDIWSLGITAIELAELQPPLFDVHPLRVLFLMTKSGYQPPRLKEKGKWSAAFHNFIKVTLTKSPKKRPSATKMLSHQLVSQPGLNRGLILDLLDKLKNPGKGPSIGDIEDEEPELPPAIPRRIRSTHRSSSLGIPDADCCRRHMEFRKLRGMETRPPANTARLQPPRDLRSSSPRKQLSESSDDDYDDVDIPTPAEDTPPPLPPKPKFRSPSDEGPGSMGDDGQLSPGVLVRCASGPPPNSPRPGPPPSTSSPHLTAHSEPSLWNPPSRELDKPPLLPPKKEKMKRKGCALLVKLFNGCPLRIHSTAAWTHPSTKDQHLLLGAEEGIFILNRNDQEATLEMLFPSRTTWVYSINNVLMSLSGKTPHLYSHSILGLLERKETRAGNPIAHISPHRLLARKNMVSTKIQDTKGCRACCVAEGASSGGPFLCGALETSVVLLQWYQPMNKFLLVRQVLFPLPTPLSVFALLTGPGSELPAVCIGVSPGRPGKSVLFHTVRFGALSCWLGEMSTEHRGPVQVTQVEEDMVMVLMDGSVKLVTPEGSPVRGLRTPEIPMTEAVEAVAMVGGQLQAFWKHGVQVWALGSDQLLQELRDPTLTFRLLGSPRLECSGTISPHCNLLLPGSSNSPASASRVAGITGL
Take `CC(C)(C#N)Nc1c(F)c(Cl)c(-c2ccn3nc(NC(=O)[C@@H]4C[C@@H]4F)cc3c2)c2cn[nH]c12` [Example 638, (1S,2S)-N-(5-(5-chloro-7-((2-cyanopropan-2-yl)amino)-6-fluoro-1H-indazol-4-yl)pyrazolo[1,5-a]pyridin-2-yl)-2-fluorocyclopropane-1-carboxamide]: the IC50 (commonly the concentration needed to halve the response being measured) was below 100 nM. Next, `C[S+]([O-])c1c(F)c(Cl)c(-c2ccc3nc(NC(=O)[C@@H]4C[C@@H]4F)sc3c2)c2cn[nH]c12` (stereo partly drawn) [Example 63, (1S,2S)-N-(6-(5-chloro-6-fluoro-7-(methylsulfinyl)-1H-indazol-4-yl)benzo[d]thiazol-2-yl)-2-fluorocyclopropane-1-carboxamide]: below 100 nM; `Cc1c(F)c(OCCNC(=O)C(F)(F)F)c2[nH]ncc2c1-c1ccn2nc(NC(=O)[C@@H]3C[C@@H]3F)cc2c1` [Example 547, (1S,2S)-2-fluoro-N-(5-(6-fluoro-5-methyl-7-(2-(2,2,2-trifluoroacetamido)ethoxy)-1H-indazol-4-yl)pyrazolo[1,5-a]pyridin-2-yl)cyclopropane-1-carboxamide]: below 100 nM; `Cc1cccn1-c1c(F)c(Cl)c(-c2ccc3nc(NC(=O)[C@@H]4C[C@@H]4F)cn3c2)c2cn[nH]c12` [Example 388, (1S,2S)-N-(6-(5-chloro-6-fluoro-7-(2-methyl-1H-pyrrol-1-yl)-1H-indazol-4-yl)imidazo[1,2-a]pyridin-2-yl)-2-fluorocyclopropane-1-carboxamide]: below 100 nM. With `O=C(Nc1nc2ccc(-c3c(I)c(F)cc4[nH]ncc34)cc2s1)[C@@H]1C[C@@H]1F` [Example 48, (1S,2S)-2-fluoro-N-(6-(6-fluoro-5-iodo-1H-indazol-4-yl)benzo[d]thiazol-2-yl)cyclopropane-1-carboxamide] the figure was below 100 nM; with `CN(CC#N)C(=O)c1c(F)c(Cl)c(-c2ccn3nc(NC(=O)[C@@H]4C[C@@H]4F)cc3c2)c2cn[nH]c12` [Example 612, 5-chloro-N-(cyanomethyl)-6-fluoro-4-(2-((1S,2S)-2-fluorocyclopropane-1-carboxamido)pyrazolo[1,5-a]pyridin-5-yl)-N-methyl-1H-indazole-7-carboxamide], below 100 nM; with `CN(c1ncncn1)c1c(F)c(Cl)c(-c2ccn3nc(NC(=O)[C@@H]4C[C@@H]4F)cc3c2)c2cn[nH]c12` [Example 617, (1S,2S)-N-(5-(5-chloro-6-fluoro-7-(methyl(1,3,5-triazin-2-yl)amino)-1H-indazol-4-yl)pyrazolo[1,5-a]pyridin-2-yl)-2-fluorocyclopropane-1-carboxamide], below 100 nM. Next, `O=C(Nc1nc2ccc(-c3cc(-c4cccs4)cc4[nH]ncc34)cc2s1)C1CC1` [Example 22, N-(6-(6-(thiophen-2-yl)-1H-indazol-4-yl)benzo[d]thiazol-2-yl)cyclopropanecarboxamide]: above 1000 nM; `NC(=O)c1c(F)c(Cl)c(-c2ccc3nc(NC(=O)[C@@H]4C[C@@H]4F)cn3c2)c2cn[nH]c12` [Example 325, 5-chloro-6-fluoro-4-(2-((1S,2S)-2-fluorocyclopropane-1-carboxamido)imidazo[1,2-a]pyridin-6-yl)-1H-indazole-7-carboxamide]: above 1000 nM; `Cc1ccc2[nH]ncc2c1-c1ccc2nc(NC(=O)C3CC3)sc2c1` [Example 1, N-(6-(5-methyl-1H-indazol-4-yl)benzo[d]thiazol-2-yl)cyclopropanecarboxamide]: 101 to 500 nM. As to `CCc1c(F)cc2[nH]ncc2c1-c1ccn2nc(NC(=O)[C@@H]3C[C@@H]3F)cc2c1` [Example 466, (1S,2S)-N-(5-(5-ethyl-6-fluoro-1H-indazol-4-yl)pyrazolo[1,5-a]pyridin-2-yl)-2-fluorocyclopropane-1-carboxamide], the IC50 is below 100 nM. With `COc1cc(C)c(-c2ccc3nc(NC(=O)[C@@H]4C[C@@H]4F)sc3c2)c2cn[nH]c12` [Example 96, (1S,2S)-2-fluoro-N-(6-(7-methoxy-5-methyl-1H-indazol-4-yl)benzo[d]thiazol-2-yl)cyclopropanecarboxamide] the figure was below 100 nM; with `CC(=O)Nc1c(F)c(C)c(-c2ccc3nc(NC(=O)[C@@H]4C[C@@H]4F)cn3c2)c2cn[nH]c12` [Example 308, (1S,2S)-N-(6-(7-acetamido-6-fluoro-5-methyl-1H-indazol-4-yl)imidazo[1,2-a]pyridin-2-yl)-2-fluorocyclopropane-1-carboxamide], 101 to 500 nM; with `O=C(Nc1cc2cc(-c3c(Cl)c(F)c(NC4CCC(O)CC4)c4[nH]ncc34)ccn2n1)[C@@H]1C[C@@H]1F` (stereo partly drawn) [Example 517, (1S,2S)-N-(5-(5-chloro-6-fluoro-7-((4-hydroxycyclohexyl)amino)-1H-indazol-4-yl)pyrazolo[1,5-a]pyridin-2-yl)-2-fluorocyclopropane-1-carboxamide], below 100 nM.

In the case of `Cc1c(F)c(C)c2[nH]ncc2c1-c1ccn2nc(NC(=O)[C@@H]3C[C@@H]3F)cc2c1` [Example 477, (1S,2S)-2-fluoro-N-(5-(6-fluoro-5,7-dimethyl-1H-indazol-4-yl)pyrazolo[1,5-a]pyridin-2-yl)cyclopropane-1-carboxamide], the IC50 is below 100 nM. With `N#C/C=C/c1c(F)c(Cl)c(-c2ccn3nc(NC(=O)[C@@H]4C[C@@H]4F)cc3c2)c2cn[nH]c12` [Example 633, (1S,2S)-N-(5-(5-chloro-7-((E)-2-cyanovinyl)-6-fluoro-1H-indazol-4-yl)pyrazolo[1,5-a]pyridin-2-yl)-2-fluorocyclopropane-1-carboxamide] the figure was below 100 nM; with `CC(Nc1c(F)c(Cl)c(-c2ccn3nc(NC(=O)[C@@H]4C[C@@H]4F)cc3c2)c2cn[nH]c12)C1CC1` (stereo partly drawn) [Example 653, (1S,2S)-N-(5-(5-chloro-7-((1-cyclopropylethyl)amino)-6-fluoro-1H-indazol-4-yl)pyrazolo[1,5-a]pyridin-2-yl)-2-fluorocyclopropane-1-carboxamide], below 100 nM; with `C[C@@H]1[C@H](C(=O)Nc2cc3cc(-c4c(Cl)c(F)c(N(C)C)c5[nH]ncc45)ccn3n2)[C@H]1c1cnn(C)c1` [Example 648, (1S,2S,3S)-N-(5-(5-chloro-7-(dimethylamino)-6-fluoro-1H-indazol-4-yl)pyrazolo[1,5-a]pyridin-2-yl)-2-methyl-3-(1-methyl-1H-pyrazol-4-yl)cyclopropane-1-carboxamide], below 100 nM. Turning to `Cc1c(F)c(C(=O)O)c2[nH]ncc2c1-c1ccn2nc(NC(=O)[C@@H]3C[C@@H]3F)cc2c1` [Example 549, 6-fluoro-4-(2-((1S,2S)-2-fluorocyclopropane-1-carboxamido)pyrazolo[1,5-a]pyridin-5-yl)-5-methyl-1H-indazole-7-carboxylic acid], the IC50 is above 1000 nM.

With `Cc1c(F)c(S(C)(=O)=O)c2[nH]ncc2c1-c1ccc2nc(NC(=O)[C@@H]3C[C@@H]3F)sc2c1` [Example 112, (1S,2S)-2-fluoro-N-(6-(6-fluoro-5-methyl-7-(methylsulfonyl)-1H-indazol-4-yl)benzo[d]thiazol-2-yl)cyclopropane-1-carboxamide], the IC50 lay within 101 to 500 nM. `CP(C)(=O)c1c(F)c(Cl)c(-c2ccc3nc(NC(=O)[C@@H]4C[C@@H]4F)cn3c2)c2cn[nH]c12` [Example 259, (1S,2S)-N-(6-(5-chloro-7-(dimethylphosphoryl)-6-fluoro-1H-indazol-4-yl)imidazo[1,2-a]pyridin-2-yl)-2-fluorocyclopropane-1-carboxamide]: the IC50 is above 1000 nM. Regarding `Cc1ncc(-c2c(F)c(Cl)c(-c3ccc4nc(NC(=O)[C@@H]5C[C@@H]5F)cn4c3)c3cn[nH]c23)[nH]1` [Example 442, (1S,2S)-N-(6-(5-chloro-6-fluoro-7-(2-methyl-1H-imidazol-5-yl)-1H-indazol-4-yl)imidazo[1,2-a]pyridin-2-yl)-2-fluorocyclopropane-1-carboxamide], the IC50 is below 100 nM.

In the case of `CNC(=O)c1c(F)c(C)c(-c2ccc3nc(NC(=O)[C@@H]4C[C@@H]4F)sc3n2)c2cn[nH]c12` [Example 206, 6-fluoro-4-(2-((1S,2S)-2-fluorocyclopropane-1-carboxamido)thiazolo[5,4-b]pyridin-5-yl)-N,5-dimethyl-1H-indazole-7-carboxamide], the IC50 was 101 to 500 nM. Next, `CCc1n[nH]c2cc(F)c(C)c(-c3ccn4nc(NC(=O)[C@@H]5C[C@@H]5F)cc4c3)c12` [Example 475, (1S,2S)-N-(5-(3-ethyl-6-fluoro-5-methyl-1H-indazol-4-yl)pyrazolo[1,5-a]pyridin-2-yl)-2-fluorocyclopropane-1-carboxamide]: above 1000 nM; `COC(=O)c1c(F)c(C)c(-c2ccc3nc(NC(=O)[C@@H]4C[C@@H]4F)sc3c2)c2cn[nH]c12` [Example 116, methyl 6-fluoro-4-(2-((1S,2S)-2-fluorocyclopropane-1-carboxamido)benzo[d]thiazol-6-yl)-5-methyl-1H-indazole-7-carboxylate]: below 100 nM.

Take `CSc1c(F)cc2[nH]ncc2c1-c1ccn2nc(NC(=O)[C@@H]3C[C@H]3F)cc2c1` [Example 572, (1S,2R)-2-fluoro-N-(5-(6-fluoro-5-(methylthio)-1H-indazol-4-yl)pyrazolo[1,5-a]pyridin-2-yl)cyclopropane-1-carboxamide]: the IC50 was below 100 nM. With `Nc1c(Cl)cc2[nH]ncc2c1-c1ccc2nc(NC(=O)C3CC3)cn2c1` [Example 240, N-(6-(5-amino-6-chloro-1H-indazol-4-yl)imidazo[1,2-a]pyridin-2-yl)cyclopropanecarboxamide], the IC50 lay in the range of 501 to 1000 nM. Take `O=C(Nc1nc2ccc(-c3ccc(Cl)c4[nH]ncc34)cc2s1)C1CC1` [Example 19, N-(6-(7-chloro-1H-indazol-4-yl)benzo[d]thiazol-2-yl)cyclopropanecarboxamide]: the IC50 is above 1000 nM.

(Values after patent US11649255B2, “Indazoles as hematopoietic progenitor kinase 1 (HPK1) inhibitors and methods using same” (1st Biotherapeutics, Inc., priority 2020, dated 2023).)
